Assay results reported in a melting point compilation (Tetko et al.; mined from patent text by program, amines drawn as free bases though some values may be those of a salt).

| SMILES | melting point [°C] |
| --- | --- |
| N#Cc1cc(NCc2ccncc2)n(-c2c(Cl)cc(C(F)(F)F)cc2Cl)n1 | > 300 |
| CCCCN1CCC[C@H]1CNC(=O)c1cc(Cl)cc2c1OC(C)(C)CN2C | 110 to 112 |
| CCOC(=O)C1=C(N)N=C(OCC)C(C(=O)OCC)C1c1cccc(C#N)c1 (configuration not stated) | 159 |
| CCOC(=O)N1CCN(C2Cc3cc(C)ccc3Sc3ccccc32)CC1 (configuration not stated) | 96 to 98 |
| CN1CCN(c2nc3sc4c(NCc5cccnc5)ncnc4c3c3c2COC(C)(C)C3)CC1 | 251 to 252 |
| O=C1Nc2ccc(Cl)cc2CN2CCCC12 (configuration not stated) | 97 to 99 |
| c1ccc(C2SCCCS2)cc1 | 72 to 73 |
| CC(C)(C)OC(=O)c1ncn2c1[C@@H]1CCCN1C(=O)c1cc(Cl)ccc1-2 | 157 to 158 |
| CSc1c(-n2ccnc2)c(-c2ccc(Cl)c(Cl)c2)nn1C | 88 to 90 |
| CC(=O)OC1CC=C(CCCCCCC(=O)O)C1=O (configuration not stated) | 62 to 65 |
| CC(=O)c1cc2c(s1)C(=O)c1c(C(C)=O)csc1C2=O | 207 to 208 |
| CNC(=NC#N)NCCSCc1nsc(NC(=N)N)n1 | 198 to 199 |
| Cc1ccc(Nc2nc(Cl)nc(NC3CCCCCC3)n2)cc1F | 149 |
| CNc1cc(C(F)(F)F)on1 | 39 to 41 |
| CCCCCCCCCCCCCCCCCCOCC(CBr)OCCCCCCCCCCCCCCCCCC (configuration not stated) | 38 to 38.8 |
| OCC(O)COc1cc(-c2cccc(Cl)c2)on1 (configuration not stated) | 92 to 93 |
| O=C1c2cccc3c(Br)ccc(c23)C(=O)N1O | 248 to 251 |
| CCCCNC(=O)N1N=C(c2ccc(N)cc2)c2cc(Cl)ccc2CC1C (configuration not stated) | 89 to 91 |
| CS(=O)(=O)c1ccc(C(CC2CCCC2)C(=O)Nc2ccncn2)cc1Br (configuration not stated) | 75 to 80 |
| CCN(CC)C(=O)c1cc(C(C)(C)C)c(O)c(C(C)(C)C)c1 | 136 to 138 |
| CCOC(=O)c1cc(OC2COCCC2=O)[nH]n1 (configuration not stated) | 121 to 123 |

| SMILES | melting point [°C] |
| --- | --- |
| CCCc1c(OCCCCCCc2ccc(C(C)(C)C)c(O)c2O)ccc(C(=O)O)c1O | 85 to 87 |
| CCCc1sc(-c2ccccc2)nc1OC(=O)NC | 55 to 58 |
| CC(=O)C(=CNc1cc(Cl)cc(C(=O)O)c1Cl)C(C)=O | 244 to 246 |
| O=C1CCCCC1c1ccncc1 (configuration not stated) | 99 to 101 |
| Cc1nc(N)nc(N)c1-c1cc(Cl)c([N+](=O)[O-])c(Cl)c1Cl | 313 to 315 |
| Cn1cc(CS(C)(=O)=O)c(=O)c2ccc(C(F)(F)F)cc21 | 240 to 242 |
| Oc1c(Br)c(Br)c(F)c(Br)c1Br | 178 to 180 |
| CCCCCCCCCCN(O)C(=O)NCCCCCCC(=O)OC | 81 to 82 |
| CC1(C)CC(=O)Oc2ccc(O)cc21 | 95 to 96 |
| CC(C)N1C(=O)c2ccccc2C1CC(C)(C)O (configuration not stated) | 82 to 84 |
| CN1CCC(C2(O)c3sccc3CCn3ccnc32)CC1 (configuration not stated) | 177 |
| OC1CSC(Oc2cncc(-c3cncnc3)c2)C(O)C1O (configuration not stated) | 196 |
| CC(=O)OCC1COc2c(cc(Cl)cc2[N+](=O)[O-])N1 (configuration not stated) | 76 to 84 |
| COC(Cn1cncn1)(c1ccc(F)cc1F)C(F)(F)S(=O)(=O)CCO (configuration not stated) | 108 to 110 |
| Cc1ncn(Cc2ccc(NC(=O)C(F)(F)F)cc2C(F)(F)F)c1C | 238 to 239 |
| O=C(O)c1nccc(Cl)c1O | 228 |
| COC(=O)c1cccc2c(Cl)c(OC)ccc12 | 125 |
| CC1C(C)(C)C2CCc3cnoc3C2C1(C)C (configuration not stated) | 82.3 |
| CNC(=O)CCSCc1csc(NC(N)=NCC(F)(F)F)n1 | 152 to 154 |
| COc1cc(COC(=O)C2Cc3sccc3C(=O)N2Cc2cc(OC)c(OC)c(OC)c2)cc(OC)c1OC (configuration not stated) | 55 |
| COc1ccc2c(=O)c(C=O)coc2c1OC(C)=O | 160 to 161 |

More lines, now with the values ahead:

| melting point [°C] | SMILES |
| --- | --- |
| 196 to 198 | COC(=O)C(Cc1ccc(OCc2ccccc2)cc1)NC(=O)c1cc2ccc(-c3ccc(Cl)cc3)cc2[nH]1 (configuration not stated) |
| 248 to 251 | CNc1ccc(-c2nc(C(=O)Nc3nccs3)c(-c3cccc(OC)c3)[nH]2)cc1 |
| 192 to 194 | N#Cc1c(C#N)n(-c2ccc(Cl)cc2)c(=O)n1Cc1ccccc1 |
| 209 | Cn1cc(C(=O)NCc2ccc(Cl)cc2)c(=O)c2cc(COCC(=O)c3ccccc3)sc21 |
| 162 to 163 | OCCc1ccccc1Nc1ncc2c(n1)-c1ccccc1[C@H](c1ccccc1F)C2 |
| 204 to 205 | CCn1nc(-c2ccccc2)c(C(C)=O)c(Nc2cccc3nc(C)ccc23)c1=O |
| 126 | CC(C)(C)OC(=O)CN(C(=O)CN1C(=O)c2ccccc2C1=O)c1ccccc1 |
| 189 | CC1=C(c2ccccc2)C(c2ccccc2OCc2ccccc2)C([N+](=O)[O-])=C(C)N1 (configuration not stated) |
| 157 | O=c1nc(-c2cccc(CCc3nnn[nH]3)n2)sc2ccccc12 |
| 142 to 143 | CCOC(=O)C=Cc1ccc(OCc2nc(-c3ccco3)oc2C)c(OC)c1 |
| 133 to 134 | Cc1oc(-c2ccccc2)nc1COc1ccc(COc2nn(Cc3ccccc3)cc2C=O)cc1 |
| 172 | CCCCNC(=O)Nc1ccc(N(CCC)CCC)cc1C(=O)NCC1CCN(C(c2ccccc2)c2ccccc2)CC1 |
| 123 to 124 | CCc1nc(/C=C/c2cn(-c3ccccc3)nc2OCc2ccc(OCc3nc(-c4ccc(CC(=O)O)cc4)oc3C)c(OC)c2)cs1 |
| 147 to 149 | O=C(O)COc1ccc(CCc2nc(-c3ccccc3)c(-c3ccccc3)o2)cc1 |
| 92 to 93 | COc1cccc(CC(=O)O)c1OCCCc1ccc(OC(C)C)cc1Oc1ncc(Cl)cc1Cl |
| 168 to 170 | COc1ccc(CSc2c(O)cc(-c3ccccc3)oc2=O)cc1 |
| 111 to 112 | Cc1ccccc1OCCCc1oc(-n2ccnc2C)nc1-c1ccc(Cl)cc1 |
| 69.5 to 70.5 | COC(=O)c1ccc2ccccc2c1OCC(F)(F)F |
| 127 to 128 | O=c1oc(-c2ccc(Oc3ccccc3)cc2)cc(O)c1SCCc1ccccc1 |
| 220 | COc1cc(OC)c(-c2cccs2)cc1C#CC(=O)c1ccc(C(=O)O)cc1 |
| 133 to 134 | COC(=O)C(=C(/C)c1ccc(OC2CCCC2)c(OC)c1)/C(=C\c1ccccc1)C(N)=O |
| 161 to 162 | CCCCCCNc1nc(-c2ccc(F)cc2)c(-c2ccc(S(C)(=O)=O)cc2)s1 |
| 255 to 258 | CC(C)(Cc1ccc(O)cc1)NCC(O)c1cc(OCc2ccccc2)cc2c1OCC(=O)N2 (configuration not stated) |
| 176 to 178 | Nc1c(-c2ccc(C(F)(F)F)cc2F)nnn1-c1ccc(O)cc1 |
| 81.7 to 84.7 | O=C(OCc1ccccc1)c1cccc(OCc2ccccc2)c1[N+](=O)[O-] |
| 200 to 203 | O=C1N(N2CCOCC2)c2ccccc2C1(Cc1ccncc1)Cc1ccncc1 |
| 210 | CCCCc1nnc2ccccc2c1Cc1ccc(-c2ccccc2)c(C(=O)O)c1 |
| 124 | COC(=O)C(c1ccccc1)C1CCN(c2ccc([N+](=O)[O-])cc2)CC1 (configuration not stated) |
| 93 to 94 | CCOC(=O)Oc1ccc(/C=C(\C)c2ccc3c(c2)SC(C)(C)S3)cc1 |
| > 280 | COc1cc2c(cc1CNC1CCCNC1c1ccccc1)N(C)C(=O)CC2(C)C (configuration not stated) |
